In experiment [1] the target is T1, yeast 20S proteasome core particle (yCP), β5 active site (ChT-L activity) (Saccharomyces cerevisiae, UniProt P23724+P30656, P30656:T76S).
T1 construct: gene PRE2; native 20S core particle purified from yeast (α7β7β7α7, 28 subunits), untagged; β5 mature after autocatalytic propeptide removal; in 'pp trans' mutants the β5 propeptide is expressed separately; with Proteasome subunit beta type-1; Proteasome subunit beta type-2; Proteasome subunit beta type-3; Proteasome subunit beta type-4; Proteasome subunit beta type-7; Proteasome subunit alpha type-1; Proteasome subunit alpha type-2; Proteasome subunit alpha type-3; Proteasome subunit alpha type-4; Proteasome subunit alpha type-5; Proteasome subunit alpha type-6; Probable proteasome subunit alpha type-7
T1 sequence (P30656 76-287 T76S): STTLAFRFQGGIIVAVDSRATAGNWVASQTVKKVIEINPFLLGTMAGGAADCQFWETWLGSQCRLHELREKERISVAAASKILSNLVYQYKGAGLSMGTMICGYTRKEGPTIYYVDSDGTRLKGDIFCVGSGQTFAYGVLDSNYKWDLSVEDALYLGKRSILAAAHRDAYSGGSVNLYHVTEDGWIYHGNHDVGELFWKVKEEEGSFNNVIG
T1 sequence (P23724 20-241): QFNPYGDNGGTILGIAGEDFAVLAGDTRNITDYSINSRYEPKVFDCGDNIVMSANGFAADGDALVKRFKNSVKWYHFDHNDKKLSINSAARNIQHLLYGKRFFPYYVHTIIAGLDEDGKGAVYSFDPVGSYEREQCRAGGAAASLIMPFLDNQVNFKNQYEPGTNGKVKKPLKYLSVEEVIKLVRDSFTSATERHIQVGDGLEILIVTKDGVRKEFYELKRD
Put plainly: fluorescence inhibition assay, Suc-LLVY-AMC. The class given is biochemical.

Experiment [2] has as its target T2, yeast 20S proteasome core particle (yCP), β5 active site (ChT-L activity) (Saccharomyces cerevisiae, UniProt P23724+P30656).
T2 construct: gene PRE2; native 20S core particle purified from yeast (α7β7β7α7, 28 subunits), untagged; β5 mature after autocatalytic propeptide removal; in 'pp trans' mutants the β5 propeptide is expressed separately; with Proteasome subunit beta type-1; Proteasome subunit beta type-2; Proteasome subunit beta type-3; Proteasome subunit beta type-4; Proteasome subunit beta type-7; Proteasome subunit alpha type-1; Proteasome subunit alpha type-2; Proteasome subunit alpha type-3; Proteasome subunit alpha type-4; Proteasome subunit alpha type-5; Proteasome subunit alpha type-6; Probable proteasome subunit alpha type-7
T2 sequence (P30656 76-287): T1 sequence (P30656 76-287 T76S) with S1T
T2 sequence (P23724 20-241): T1 sequence (P23724 20-241)
Put plainly: fluorescence inhibition assay, Suc-LLVY-AMC. It is filed as biochemical.

Experiment [3] addresses T3, yeast 20S proteasome core particle (yCP), β5 active site (ChT-L activity) (Saccharomyces cerevisiae, UniProt P23724+P30656, P30656:D243N).
T3 construct: gene PRE2; native 20S core particle purified from yeast (α7β7β7α7, 28 subunits), untagged; β5 mature after autocatalytic propeptide removal; in 'pp trans' mutants the β5 propeptide is expressed separately; with Proteasome subunit beta type-1; Proteasome subunit beta type-2; Proteasome subunit beta type-3; Proteasome subunit beta type-4; Proteasome subunit beta type-7; Proteasome subunit alpha type-1; Proteasome subunit alpha type-2; Proteasome subunit alpha type-3; Proteasome subunit alpha type-4; Proteasome subunit alpha type-5; Proteasome subunit alpha type-6; Probable proteasome subunit alpha type-7
T3 sequence (P30656 76-287 D243N): T1 sequence (P30656 76-287 T76S) with S1T, D168N
T3 sequence (P23724 20-241): T1 sequence (P23724 20-241)
Put plainly: X-ray crystal structure. As to conditions: crystal soak; covalent (morpholine ring with Thr1). The class given is binding.

The target of experiment [4] is T4, yeast 20S proteasome core particle (yCP), β5 active site (ChT-L activity) (Saccharomyces cerevisiae, UniProt P23724+P30656, P30656:K108A).
T4 construct: gene PRE2; native 20S core particle purified from yeast (α7β7β7α7, 28 subunits), untagged; β5 mature after autocatalytic propeptide removal; in 'pp trans' mutants the β5 propeptide is expressed separately; with Proteasome subunit beta type-1; Proteasome subunit beta type-2; Proteasome subunit beta type-3; Proteasome subunit beta type-4; Proteasome subunit beta type-7; Proteasome subunit alpha type-1; Proteasome subunit alpha type-2; Proteasome subunit alpha type-3; Proteasome subunit alpha type-4; Proteasome subunit alpha type-5; Proteasome subunit alpha type-6; Probable proteasome subunit alpha type-7
T4 sequence (P30656 76-287 K108A): T1 sequence (P30656 76-287 T76S) with S1T, K33A
T4 sequence (P23724 20-241): T1 sequence (P23724 20-241)
Put plainly: X-ray crystal structure. It is filed as binding. As to conditions: propeptide expressed in trans, covalent.

Substitutions are numbered along the chain they refer to.

`CC(C)C[C@H](NC(=O)[C@H](Cc1ccccc1)NC(=O)c1cnccn1)B(O)O` [bortezomib]: the IC50 in experiment [1] worked out at 649 ± 176 nM; in experiment [2], 174 ± 29 nM.
Turning to `CC(C)C[C@H](NC(=O)[C@H](CCc1ccccc1)NC(=O)CN1CCOCC1)C(=O)N[C@@H](Cc1ccccc1)C(=O)N[C@@H](CC(C)C)C(=O)[C@@]1(C)CO1` [carfilzomib], the X-ray crystal structure entry in experiment [3] is “Soaking the β5-D166N crystals with carfilzomib and MG132 resulted in covalent modification of Thr1”; in experiment [4], “crystal structure of the β5-K33A pp trans mutant in complex with carfilzomib”.

Source of the values: PMC4792962, “A unified mechanism for proteolysis and autocatalytic activation in the 20S proteasome” (Nature Communications, 2016).
